Reference: ChEMBL document CHEMBL4421719, “Modulation of k2p channels” (2016)

Columns and labels:
Assay type in all cases: cell-based
[1] = molecular target: T1, Potassium channel subfamily K member 4 (Homo sapiens) (UniProt Q9NYG8); assay: Activation of K2P4.1 (unknown origin) expressed in Xenopus oocytes assessed as effect on channel currents at -80 mV holding potential at 100 uM by two-electrode voltage clamp assay relative to control
T1 sequence (whole entry): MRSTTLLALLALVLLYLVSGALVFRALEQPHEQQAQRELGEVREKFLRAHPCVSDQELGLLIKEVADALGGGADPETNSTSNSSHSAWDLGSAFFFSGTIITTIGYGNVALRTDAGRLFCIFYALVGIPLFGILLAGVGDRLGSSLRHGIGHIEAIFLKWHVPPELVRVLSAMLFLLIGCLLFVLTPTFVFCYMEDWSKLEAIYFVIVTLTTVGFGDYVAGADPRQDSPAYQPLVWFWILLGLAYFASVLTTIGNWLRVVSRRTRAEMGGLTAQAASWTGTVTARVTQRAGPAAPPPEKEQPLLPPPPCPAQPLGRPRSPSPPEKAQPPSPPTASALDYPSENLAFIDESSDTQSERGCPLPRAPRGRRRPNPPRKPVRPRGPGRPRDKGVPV

[2] = molecular target: T2, Potassium channel subfamily K member 2 (Homo sapiens) (UniProt O95069); assay: Activation of K2P2.1 (unknown origin) expressed in Xenopus oocytes assessed as effect on channel currents at -80 mV holding by two-electrode voltage clamp assay relative to control
T2 sequence (whole entry): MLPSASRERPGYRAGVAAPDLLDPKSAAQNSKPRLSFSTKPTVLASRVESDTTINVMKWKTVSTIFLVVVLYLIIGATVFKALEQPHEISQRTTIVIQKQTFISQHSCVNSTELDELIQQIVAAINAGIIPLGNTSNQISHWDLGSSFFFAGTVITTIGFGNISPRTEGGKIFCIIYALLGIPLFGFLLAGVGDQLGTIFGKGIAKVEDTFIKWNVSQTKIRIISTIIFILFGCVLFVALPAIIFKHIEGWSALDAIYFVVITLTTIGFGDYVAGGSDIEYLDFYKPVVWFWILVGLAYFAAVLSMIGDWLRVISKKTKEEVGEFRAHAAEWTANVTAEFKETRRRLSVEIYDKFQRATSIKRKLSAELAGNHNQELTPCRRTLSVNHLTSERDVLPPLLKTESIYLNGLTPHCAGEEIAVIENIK

[3] = molecular target: T2, Potassium channel subfamily K member 2 (Homo sapiens); assay: Activation of K2P2.1 (unknown origin) expressed in HEK293T cells assessed as effect on channel currents at -40 mV holding potential by two-electrode voltage clamp assay relative to control
[4] = molecular target: T2, Potassium channel subfamily K member 2 (Homo sapiens); assay: Activation of K2P2.1 (unknown origin) expressed in HEK293T cell membranes in inside-out patch configuration assessed as effect on channel currents by measuring time of return to baseline following compound washout at 20 uM by two-electrode voltage clamp assay relative to control
Homo sapiens = species on record: Homo sapiens; assay: Activation of K2P2.1 3G mutant (unknown origin) expressed in Xenopus oocytes assessed as effect on channel currents at -80 mV holding potential by two-electrode voltage clamp assay relative to control
[5] = molecular target: T1, Potassium channel subfamily K member 4 (Homo sapiens); assay: Activation of K2P4.1 (unknown origin) expressed in Xenopus oocytes assessed as effect on channel currents at -80 mV holding potential by two-electrode voltage clamp assay relative to control

Emax [1]: 14.7%
Emax [2]: 11.1 to 11.4
Emax [3]: 11.4
T1/2 [4]: 22 s
Emax [5]: 14.7
SMILES: CC1(C)c2cc(Cl)ccc2N(CCc2nnn[nH]2)c2ccc(Cl)cc21
Emax (Homo sapiens): 12.9
